We go through seven molecules from patent US20130272962A1, “STAINING AGENT FOR CORNEAL STAINING” (FLUORON GMBH, priority 2012, published 2013).

Data set [1] in a line: Staining of ophthalmic membranes.
Data set [2] can be described thus: Solubility of the dyestuff in liquids for application in the eye. Conditions: for solubility in liquids suitable for application in the anterior and posterior region of the eye: balanced salt solution (BSS), water for injection; for solubility in liquids that are heavier than water: ≧1.01 g/cm^3, e.g. polyethylene glycol. The class given is physicochemical.
The next data set concerns cornea. Particulars: Ünlü et al. 2000; Gamal Eldin et al. 1999; cited from earlier work.
The next data set has as its system eukaryotes. Conditions: cited from earlier work.
The test system of data set [3] is Human Retinal Pigment Epithelium in Vitro. Particulars: Wu et al. 2005; cited from earlier work.
The conditions of data set [4]: Ito et al. 2004; cited from earlier work.
Data set [5] concerns Human Corneal Epithelial Cells. Conditions: intensified by interaction with light; Kim et al. 1999; cited from earlier work.
Data set [6] relates to Human Retinal Pigment Epithelial Cells. Conditions: Veckeneer et al. 2002 (rabbit eyes); Rezai et al. 2004; cited from earlier work.
For data set [7] the following is noted: Cahen 1964; product information BLURHEX; cited from earlier work.

Structures are written as SMILES.

`CCN(CC)c1ccc(C(=C2C=CC(=[N+](CC)Cc3cccc(S(=O)(=O)[O-])c3)C=C2)c2ccc(N(CC)Cc3cccc(S(=O)(=O)O)c3)cc2)cc1` [Acid Violet 17]: in data set [1], the “coloring of the inner limiting membrane (ILM) and the anterior and posterior lens capsules” value was “capable of coloring both the inner limiting membrane (ILM) and the anterior and posterior lens capsules”; the “staining of the cornea or constituents thereof” value was “capable of staining the cornea or constituents thereof”. Moreover, in data set [2], the “solubility in liquids suitable for application in the anterior and posterior region of the eye” value is recorded as “very readily soluble”; the “solubility in liquids that are heavier than water” value was “very readily soluble”.
As to `CCOc1ccc(Nc2ccc(/C(=C3C=C/C(=[N+](/CC)Cc4cccc(S(=O)(=O)[O-])c4)C=C/3C)c3ccc(N(CC)Cc4cccc(S(=O)(=O)[O-])c4)cc3C)cc2)cc1.[Na+]` [BBG, Brilliant Blue G], in data set [1], the “coloring of the inner limiting membrane (ILM) and the anterior and posterior lens capsules” value is “capable of coloring both the inner limiting membrane (ILM) and the anterior and posterior lens capsules”; the “staining of the cornea or constituents thereof” value is “capable of staining the cornea or constituents thereof”. Besides, in data set [2], the “solubility in liquids suitable for application in the anterior and posterior region of the eye” value was “very readily soluble”; the “solubility in liquids that are heavier than water” value was “very readily soluble”.
As to `CN(C)c1ccc(C(=C2C=CC(=[N+](C)C)C=C2)c2ccc(N(C)C)cc2)cc1` [Gentian violet], in the data set with cornea, the corneal oedema result is given as “cause corneal oedemas”.
As for `[2H]O[2H]` [Heavy water, D2O], the “concentration in water tolerated by eukaryotes” value in the data set on eukaryotes is not above 20%.
In the case of `CC1(C)C(/C=C/C=C/C=C/C=C2\N(CCCCS(=O)(=O)O)c3ccc4ccccc4c3C2(C)C)=[N+](CCCCS(=O)(=O)[O-])c2ccc3ccccc3c21` [ICG, indocyanine green], the phototoxicity entry in data set [3] is on record as “phototoxic”. For the same molecule, the cytotoxicity entry in data set [4] is on record as “cytotoxic”.
Regarding `O=C([O-])c1c(Cl)c(Cl)c(Cl)c(Cl)c1-c1c2cc(I)c(=O)c(I)c-2oc2c(I)c([O-])c(I)cc12.[Na+].[Na+]` [Rose bengal], the cytotoxicity result in [5] was “cytotoxic”.
As for `Cc1cc(-c2ccc(/N=N/c3c(S(=O)(=O)O)cc4cc(S(=O)(=O)O)cc(N)c4c3O)c(C)c2)ccc1/N=N/c1c(S(=O)(=O)O)cc2cc(S(=O)(=O)O)cc(N)c2c1O` [trypan blue], the cytotoxicity result in data set [6] is reported as “cytotoxic”. Further, the “teratogenic or mutagenic effect” value in [7] is recorded as “teratogenic or mutagenic effect”.
